Experimental findings from patent US20230277459A1, “PHARMACEUTICAL COMPOSITIONS HAVING HIGH DRUG LOADINGS OF MEDIUM CHAIN TRIGLYCERIDES AND METHODS RELATED THERETO” (CERECIN INC., priority 2017, published 2023) are described below.

The data set is described as follows: In-vitro digestion pH titration. It is filed as in vitro ADME. The settings on record: FIG. 9. The source says:
The digestion pH titration curves for both compositions, as well as control samples F-11 and the Miglyol 808 oil are shown in FIG. 9.

Consider `CCCCCCCC(=O)OCC(COC(=O)CCCCCCC)OC(=O)CCCCCCC` [Miglyol 808 oil, caprylic triglyceride], for which the “digestion pH titration curve” value was “sigmoidal titration curve, and is slower to reach the endpoint”.
